In PMC4157337 (Peptides, 2013):
Values belong to the molecule of their own block, whether it stands above or below them.

Tests used:
[1] = tested on: Ang-(1-7) peptidase (CSF); experiment: Competition of peptides for conversion of [125I]-Ang-; settings: pooled CSF, inhibitor cocktail, 120 min, 37°C; Figure 4
[2] = tested on: Ang-(1-7) peptidase (CSF); settings: sheep CSF, earlier study; cited from earlier work
[3] = tested on: Ang-(1-7) peptidase (CSF); experiment: Inhibitor profile: [125I]-Ang-; type: biochemical, sheep; settings: text to Figure 1D-F; pooled CSF
[4] = target: neprilysin; settings: no reference given; quoted as known selective inhibitor; cited from earlier work
[5] = cited from earlier work
[6] = target: neurolysin; settings: cited from earlier work
[7] = tested on: Ang-(1-7) peptidase (CSF); experiment: pH profile of [125I]-Ang-; type: biochemical, sheep; settings: pH 5 to 8.5; N = 3
[8] = tested on: Ang-(1-7) peptidase (CSF); experiment: Peptidase kinetics; type: biochemical; settings: sheep CSF, control and BMX; product [125I]-Ang-(1-4)
[9] = target: TOP (thimet oligopeptidase); settings: cited from earlier work

Molecule: O=C(O)c1cc[c]([Hg][Cl])cc1 [PCMB, p-chloromercuribenzoic acid]
conversion of Ang-(1-7) to Ang-(1-4) in CSF, in words [2]: abolished

Molecule: C[C@H]1C[C@H]2[C@@H]3CCC4=CC(=O)C=C[C@]4(C)[C@@]3(F)[C@@H](O)C[C@]2(C)[C@@]1(O)C(=O)CO [betamethasone]
ACE2 activity in renal cortex, isolated tubules and urine, in words ([5]; BMX sheep): lower
ACE2 activity in the circulation, in words ([5]; adult BMX offspring): decreased
soluble ACE activity in the circulation, in words ([5]; adult BMX offspring): increased
MAP, in words ([5]; antenatal exposure, by 6 months of age): elevated MAP
baroreflex sensitivity (BRS), in words ([5]; antenatal exposure, by 6 weeks): decreased BRS

Molecule: Pro-Ile
Ki [6]: 90 µM
sensitivity of neurolysin forms to inhibition, in words ([6]; cytosolic and mitochondrial forms): sensitive to Pro-Ile inhibition
attenuation of metabolism of Ang-(1-7) to Ang-(1-4), in words [3]: failed to attenuate

Molecule: 1-carboxy-3-phenyl-propyl (Ala-Ala-Phe-4-Abz-OH [CFP]
Ki [6]: 4 µM
attenuation of metabolism of Ang-(1-7) to Ang-(1-4), in words [3]: failed to attenuate
Ki [9]: 0.18 µM

Further lines, with some results ahead:

extent of inhibition of enzyme activity over the concentration range [1]: 15%
extent of inhibition of enzyme activity, in words [1]: poor competitor
Molecule: neurotensin

attenuation of metabolism of Ang-(1-7) to Ang-(1-4), in words [3]: failed to attenuate
Molecule: O=C(O)C(O)CNC(=O)[C@H](Cc1ccccc1)NC(CCc1ccccc1)C(=O)O (stereo partly drawn) [SCH39370]
Ki [4]: 0.011 µM

conversion in BMX versus control CSF, in words [7]: higher activity than the control
site of hydrolysis [8]: Tyr^4-Ile^5 bond
Molecule: [^125I]-Ang-(1-7): iodinated Ang-(1-7), substrate; chloramine T method
